Laboratory results from the supplement of paper PMC10307832.

Columns and labels:
Test in all cases: relative viability (nuclei count vs DMSO), 5 days (fraction); higher = more cells survive
A-427 = test system: A-427
Procedure, shortened: (§1)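 Lung cancer cell lines in 1536-well plates were dosed by pin tool the day after seeding, either with one drug alone or with a fixed anchor-drug dose plus five library-drug doses (not always all listed) in √10 steps. After 5 days, cells were fixed and their nuclei stained in one step (final 0.05% Triton X-100, 1% formaldehyde, 1 ug/ml Hoechst), then counted on 4× images. Relative viability is the nuclei count in treated wells divided by that in vehicle wells. Values are medians of duplicate plates.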

CAL-12T = test system: CAL-12T
Procedure, shortened: as §1

COR-L 105 = test system: COR-L 105
Procedure, shortened: as §1

EMC-BAC-2 = test system: EMC-BAC-2
Procedure, shortened: as §1

HARA = test system: HARA
Procedure, shortened: as §1

HCC-366 = test system: HCC-366
Procedure, shortened: as §1

HCC-827 = test system: HCC-827
Procedure, shortened: as §1

HOP-62 = test system: HOP-62
Procedure, shortened: as §1

LCLC-103H = test system: LCLC-103H
Procedure, shortened: as §1

NCI-H1395 = test system: NCI-H1395
Procedure, shortened: as §1

NCI-H1437 = test system: NCI-H1437
Procedure, shortened: as §1

NCI-H1755 = test system: NCI-H1755
Procedure, shortened: as §1

NCI-H1792 = test system: NCI-H1792
Procedure, shortened: as §1

NCI-H1915 = test system: NCI-H1915
Procedure, shortened: as §1

NCI-H2009 = test system: NCI-H2009
Procedure, shortened: as §1

NCI-H2228 = test system: NCI-H2228
Procedure, shortened: as §1

NCI-H23 = test system: NCI-H23
Procedure, shortened: as §1

NCI-H460 = test system: NCI-H460
Procedure, shortened: as §1

NCI-H522 = test system: NCI-H522
Procedure, shortened: as §1

NCI-H727 = test system: NCI-H727
Procedure, shortened: as §1

SK-LU-1 = test system: SK-LU-1
Procedure, shortened: as §1

SW 1573 = test system: SW 1573
Procedure, shortened: as §1

## COc1cc2nccc(Oc3ccc(NC(=O)Nc4cc(C)on4)c(Cl)c3)c2cc1OC [Tivozanib] + O=C(c1cc(Cc2n[nH]c(=O)c3ccccc23)ccc1F)N1CCN(C(=O)C2CC2)CC1 [Olaparib] (partner 8 µM)
A-427; first compound 0.005 µM
  relative viability: 0.667
A-427; first compound 0.01581 µM
  relative viability: 0.747
A-427; first compound 0.05 µM
  relative viability: 0.774
A-427; first compound 0.1581 µM
  relative viability: 0.709
A-427; first compound 0.5 µM
  relative viability: 0.737
CAL-12T; first compound 0.005 µM
  relative viability: 0.666
CAL-12T; first compound 0.01581 µM
  relative viability: 0.654
CAL-12T; first compound 0.05 µM
  relative viability: 0.75
CAL-12T; first compound 0.1581 µM
  relative viability: 0.812
CAL-12T; first compound 0.5 µM
  relative viability: 0.584
COR-L 105; first compound 0.005 µM
  relative viability: 0.629
COR-L 105; first compound 0.01581 µM
  relative viability: 0.558
COR-L 105; first compound 0.05 µM
  relative viability: 0.773
COR-L 105; first compound 0.1581 µM
  relative viability: 0.713
COR-L 105; first compound 0.5 µM
  relative viability: 0.705
EMC-BAC-2; first compound 0.005 µM
  relative viability: 0.492
EMC-BAC-2; first compound 0.01581 µM
  relative viability: 0.543
EMC-BAC-2; first compound 0.05 µM
  relative viability: 0.469
EMC-BAC-2; first compound 0.1581 µM
  relative viability: 0.472
EMC-BAC-2; first compound 0.5 µM
  relative viability: 0.358
HARA; first compound 0.005 µM
  relative viability: 0.606
HARA; first compound 0.01581 µM
  relative viability: 1.07
HARA; first compound 0.05 µM
  relative viability: 0.763
HARA; first compound 0.1581 µM
  relative viability: 1.15
HARA; first compound 0.5 µM
  relative viability: 0.893
HCC-366; first compound 0.005 µM
  relative viability: 0.367
HCC-366; first compound 0.01581 µM
  relative viability: 0.365
HCC-366; first compound 0.05 µM
  relative viability: 0.37
HCC-366; first compound 0.1581 µM
  relative viability: 0.363
HCC-366; first compound 0.5 µM
  relative viability: 0.352
HCC-827; first compound 0.005 µM
  relative viability: 0.572
HCC-827; first compound 0.01581 µM
  relative viability: 0.719
HCC-827; first compound 0.05 µM
  relative viability: 0.623
HCC-827; first compound 0.1581 µM
  relative viability: 0.612
HCC-827; first compound 0.5 µM
  relative viability: 0.623
HOP-62; first compound 0.005 µM
  relative viability: 0.472
HOP-62; first compound 0.01581 µM
  relative viability: 0.405
HOP-62; first compound 0.05 µM
  relative viability: 0.324
HOP-62; first compound 0.1581 µM
  relative viability: 0.537
HOP-62; first compound 0.5 µM
  relative viability: 0.37
LCLC-103H; first compound 0.005 µM
  relative viability: 0.785
LCLC-103H; first compound 0.01581 µM
  relative viability: 0.783
LCLC-103H; first compound 0.05 µM
  relative viability: 0.734
LCLC-103H; first compound 0.1581 µM
  relative viability: 0.791
LCLC-103H; first compound 0.5 µM
  relative viability: 0.853
NCI-H1395; first compound 0.005 µM
  relative viability: 0.421
NCI-H1395; first compound 0.01581 µM
  relative viability: 0.443
NCI-H1395; first compound 0.05 µM
  relative viability: 0.476
NCI-H1395; first compound 0.1581 µM
  relative viability: 0.484
NCI-H1395; first compound 0.5 µM
  relative viability: 0.422
NCI-H1437; first compound 0.005 µM
  relative viability: 0.613
NCI-H1437; first compound 0.01581 µM
  relative viability: 0.628
NCI-H1437; first compound 0.05 µM
  relative viability: 0.658
NCI-H1437; first compound 0.1581 µM
  relative viability: 0.613
NCI-H1437; first compound 0.5 µM
  relative viability: 0.584
NCI-H1755; first compound 0.005 µM
  relative viability: 0.835
NCI-H1755; first compound 0.01581 µM
  relative viability: 0.829
NCI-H1755; first compound 0.05 µM
  relative viability: 0.936
NCI-H1755; first compound 0.1581 µM
  relative viability: 0.773
NCI-H1755; first compound 0.5 µM
  relative viability: 0.784
NCI-H1792; first compound 0.005 µM
  relative viability: 0.313
NCI-H1792; first compound 0.01581 µM
  relative viability: 0.46
NCI-H1792; first compound 0.05 µM
  relative viability: 0.516
NCI-H1792; first compound 0.5 µM
  relative viability: 0.294
NCI-H1915; first compound 0.005 µM
  relative viability: 0.255
NCI-H1915; first compound 0.01581 µM
  relative viability: 0.279
NCI-H1915; first compound 0.05 µM
  relative viability: 0.286
NCI-H1915; first compound 0.1581 µM
  relative viability: 0.291
NCI-H1915; first compound 0.5 µM
  relative viability: 0.206
NCI-H2009; first compound 0.005 µM
  relative viability: 0.655
NCI-H2009; first compound 0.01581 µM
  relative viability: 0.703
NCI-H2009; first compound 0.05 µM
  relative viability: 0.751
NCI-H2009; first compound 0.1581 µM
  relative viability: 0.714
NCI-H2009; first compound 0.5 µM
  relative viability: 0.542
NCI-H2228; first compound 0.005 µM
  relative viability: 0.669
NCI-H2228; first compound 0.01581 µM
  relative viability: 0.956
NCI-H2228; first compound 0.05 µM
  relative viability: 0.771
NCI-H2228; first compound 0.1581 µM
  relative viability: 0.644
NCI-H2228; first compound 0.5 µM
  relative viability: 0.723
NCI-H23; first compound 0.005 µM
  relative viability: 0.363
NCI-H23; first compound 0.01581 µM
  relative viability: 0.288
NCI-H23; first compound 0.05 µM
  relative viability: 0.347
NCI-H23; first compound 0.5 µM
  relative viability: 0.253
NCI-H460; first compound 0.005 µM
  relative viability: 0.377
NCI-H460; first compound 0.01581 µM
  relative viability: 0.469
NCI-H460; first compound 0.05 µM
  relative viability: 0.496
NCI-H460; first compound 0.1581 µM
  relative viability: 0.393
NCI-H460; first compound 0.5 µM
  relative viability: 0.356
NCI-H522; first compound 0.005 µM
  relative viability: 0.627
NCI-H522; first compound 0.01581 µM
  relative viability: 0.635
NCI-H522; first compound 0.05 µM
  relative viability: 0.651
NCI-H522; first compound 0.1581 µM
  relative viability: 0.591
NCI-H522; first compound 0.5 µM
  relative viability: 0.512
NCI-H727; first compound 0.005 µM
  relative viability: 0.678
NCI-H727; first compound 0.01581 µM
  relative viability: 0.787
NCI-H727; first compound 0.05 µM
  relative viability: 0.823
NCI-H727; first compound 0.1581 µM
  relative viability: 0.786
NCI-H727; first compound 0.5 µM
  relative viability: 0.74
SK-LU-1; first compound 0.005 µM
  relative viability: 0.465
SK-LU-1; first compound 0.01581 µM
  relative viability: 0.474
SK-LU-1; first compound 0.05 µM
  relative viability: 0.528
SK-LU-1; first compound 0.1581 µM
  relative viability: 0.384
SK-LU-1; first compound 0.5 µM
  relative viability: 0.464
SW 1573; first compound 0.005 µM
  relative viability: 0.443
SW 1573; first compound 0.01581 µM
  relative viability: 0.416
SW 1573; first compound 0.05 µM
  relative viability: 0.434
SW 1573; first compound 0.1581 µM
  relative viability: 0.506
SW 1573; first compound 0.5 µM
  relative viability: 0.446
